# According to a melting point compilation (Tetko et al.; mined from patent text by program, amines drawn as free bases though some values may be those of a salt):
row,SMILES,melting point
1,Cc1cccc(C=NN2CCN(C(c3ccccc3)c3ccccc3)CC2)n1,130 to 132 °C
2,Cc1cn(C(C)C(=O)N(C)C)nc1-c1ccccc1Br (stereo unspecified),102 to 104 °C
3,CCOCc1nc2c(c(C)c(C)n3nnnc23)n1CCNS(C)(=O)=O,218 to 222 °C
4,Cc1ccccc1Sc1ccc2c(c1)CC[C@H]1NC(=O)CC[C@]21C,192 °C
5,O=Cc1ccc(-c2ccc(-c3ccc(C=O)o3)cn2)cc1,204 to 206 °C
6,Clc1ccc2nnnn2n1,104 to 105 °C
7,COc1cc2ncnc(N3CCN(C(=O)Nc4ccc(N)cc4)CC3)c2cc1OC,215 to 217 °C
8,CC(C)(C)NC(=O)C(C#N)=NO,218 to 219 °C
9,Cc1nc2c(c3c1[nH]c1ccccc13)C(=NO)CC(C)C2 (stereo unspecified),282 to 283 °C
10,Cn1ncnc1-c1oc2cccc(OCCc3ccc(F)cc3)c2c(=O)c1O,215 to 217 °C
11,Cc1nc(-c2cccnc2)c2nc(-c3ccccc3)cc-2[nH]1,252 to 254 °C
12,C=CCOc1ccc(Nc2ccn(-c3ccccc3)n2)cc1,80 to 81 °C
13,COc1ccc(COCc2nc(C(C)C)c(Sc3cc(Cl)cc(Cl)c3)n2C)cc1,79 to 80 °C
14,Cc1cc(-n2ccnc2)c2cccc(OCc3c(Cl)ccc(S(=O)(=O)N4CCC[C@H]4C(=O)N(C)CCN(C)CCCO)c3Cl)c2n1,98 °C
15,CC(C)(C)NCC(O)COc1ccc(OCC2CC2)cc1 (stereo unspecified),90 to 92 °C
16,COc1ccc2c(c1)CCN(C(=O)OCc1ccccc1)C21CCC(C(=O)O)(C(=O)O)CC1,193 to 194 °C
17,CC1(C)c2ccccc2C(C)(C)C1(S)CC#N,113 to 114 °C
18,COc1ccc2[nH]c(C(=O)C(C)(C)c3ccc(Cl)cc3)cc2c1,177 to 179 °C
19,COC(=O)/C=C/c1ccc(OCCCC(=O)OC)cc1O,108 to 112 °C
20,Cc1cccc(Nc2cc(Nc3ccc(OCCCO)cc3)ncn2)c1,196 to 200 °C
21,CC(C)(C)c1cc(-c2nn(C(=O)c3ccc(Cl)cc3)c3ncccc23)cc(C(C)(C)C)c1O,256 to 258 °C
22,O=C(CBr)c1cc(OCc2ccccc2)no1,80 to 81 °C
23,Cc1ccc(S(=O)(=O)NC(=O)Nc2cc(C)c(S(=O)(=O)C[N+](=O)[O-])c(C)c2)cc1,150 to 155 °C
24,COc1ccc2c(c1)CCC(C=O)=C2C,70 to 72 °C

row,SMILES,melting point
1,NS(=O)(=O)c1cc2cccnc2s1,223 to 225 °C
2,COC(=O)C(C)Oc1ccc(Oc2ncc(Cl)cc2N)cc1 (stereo unspecified),92 to 94 °C
3,Cc1cc(CCCCCOc2ccc(-c3nc4ccccc4s3)cc2)on1,70.5 to 71.2 °C
4,Cc1c(C(=O)Nc2ccc(OCC(C)(C)C)c(C#N)c2)cnn1C1CCCCC1,126 to 128 °C
5,COC(=O)C1CCn2c1cc(Cl)c2C(=O)c1ccccc1 (stereo unspecified),106 °C
6,CCOC(=O)c1nn(-c2cccc(C)c2)c(=O)c2c(N)scc12,190 to 191 °C
7,CC(C)(C)OC(=O)N[C@@H](CC1CCCCC1)[C@@H]1C[C@@H](C2(O)CCCCC2)C(=O)O1,133 to 134 °C
8,C=C1SC(=O)N(c2ccc3cc(-c4ccc(O)c(C56CC7CC(CC(C7)C5)C6)c4)ccc3c2)C1=O,299 to 302 °C
9,Cc1cc(C(N)=O)ncc1C(c1c(F)ccc(F)c1F)S(=O)(=O)CCCC(F)(F)F (stereo unspecified),201 to 203 °C
10,COc1cc(OC)nc(Sc2sccc2NC(=O)C(F)(F)F)n1,88 to 90 °C
11,CCOC(=O)c1c(N2CCN(C(=O)c3cccs3)CC2)c2cccnc2n(Cc2cccc(F)c2)c1=O,105 to 110 °C
12,CCn1c(COC)nc(C(C)C)c1Sc1cc(C#N)cc(C#N)c1,156 to 158 °C
13,Cc1cc(C(=O)C(C#N)C(=O)Nc2ccc(F)cc2)c(C)n1C (stereo unspecified),171 to 172 °C
14,COc1cccc(F)c1-n1nnc2cc(C(C)(C)C)c(OCc3ncnn3C)nc21,116 to 118 °C
15,CN(CC(=O)C(CCCCN)NC(=O)c1ccccc1)C(=O)N1CCCC1C(=O)O (stereo unspecified),130 to 133 °C
16,CCCCCCCCCCCCCCCCCCNC(=O)NCCCCCCCCN,120 to 145 °C
17,COc1ccc(C(CN(C)C)C2CCCCC2O)cc1 (stereo unspecified),77 to 79 °C
18,Cc1c(CN2CCN(c3cccc(C(F)(F)F)c3)CC2)cc(-c2ccc(Cl)cc2)n1-c1ccc(Cl)cc1,165 to 167 °C
19,Nc1nc2[nH]c(CCCc3cc(C(=O)O)cs3)cc2c(=O)[nH]1,181 to 182 °C
20,CCc1nc(OC)c(NC(=O)N2CCN(c3cc(Cl)cc(Cl)c3)CC2)cc1C(=O)Nc1cc(CO)cc(Nc2c3ccccc3nc3ccccc23)c1,210 to 212 °C
21,COc1ccc(C(O)CN2c3nc(-c4ccncc4)cc(=O)n3CCC2c2ccccc2)cc1 (stereo unspecified),150 to 152 °C
22,N#Cc1ccc(N2CCN(Cc3cn4cc(Cl)ccc4n3)CC2)c(F)c1,132 to 133 °C
23,O=C(c1cccs1)c1cnn2c(-c3cccc(NC(=S)Nc4cccc(-c5ccnc6c(C(=O)c7cccs7)cnn56)c4)c3)ccnc12,151 to 153 °C
24,Cc1cc(NC2=NCCN2)n(C)n1,167 to 169 °C

row,SMILES,melting point
1,CCCCNC(=O)C(O[Si](C)(C)C(C)(C)C)C(c1ccccc1)c1ccccc1 (stereo unspecified),73 to 74 °C
2,Cc1cc(C2=C(/C=C/[C@H]3C[C@H](O)CC(=O)O3)C(C)(C)CC3(C2)SCCCS3)ccc1F (relative stereo),136 to 138 °C
3,Clc1ncc(OC[C@@H]2CCCN2)cc1-c1ccccc1,75 to 80 °C
4,O=C1Nc2ccccc2SC1c1ccccc1Cl (stereo unspecified),200 °C
5,O=S(=O)(c1cccs1)N1CCc2[nH]c3c(cnc4cc(Cl)ccc43)c2C1,> 250 °C
6,COc1cc(CN2CCN(C(=O)c3ccc4c(c3)C(=O)C3(CC3)O4)CC2)cc(OC)c1OC,196 to 198 °C
7,CS(=O)(=O)c1ccc(-n2cc(COCc3ccccc3)nc2-c2ccc(Cl)cc2)cc1,64 to 65 °C
8,COC[C@H]1CN(C2=Nc3ccccc3Nc3sc(C)cc32)CCN1,87 to 95 °C
9,CCCCCCCCCCCCCCCCCCOC(=O)CCc1cc(C(C)(C)C)c(OP2Nc3ccccc3O2)c(C(C)(C)C)c1 (stereo unspecified),58 to 65 °C
10,O=Cc1c(-c2cccnc2)[nH]c2ccccc12,148 to 150 °C
11,CC(C)N(C(=O)c1cccc2c1CCc1cc(C(F)(F)F)ccc1S2)C(C)C,122 °C
12,COc1ccc(NCCSC#N)c([N+](=O)[O-])c1,116 to 118 °C
13,Cc1cc2c(-c3ccccc3)c(CO)n(C)c(=O)c2cc1C,209 to 210 °C
14,N#Cc1ccc2c(c1)C(=O)c1ccccc1OC2,116 to 127 °C
15,COc1ccccc1NC(=O)Nc1cccc(-n2c(=O)c(CCC(=O)N(C)C)nc3cccnc32)c1,242 to 245 °C
16,CN(C)c1cccc2c(S(=O)(=O)NCCCCn3cnc4c(N)nc5ccccc5c43)cccc12,200 to 201 °C
17,CC(C)c1c(C(=O)c2ccccc2)n(COCc2ccccc2)c(=O)[nH]c1=O,184 °C
18,CCN1c2ncccc2C(=O)Nc2c(C)cc(N3CCCCC3CCO)nc21 (stereo unspecified),234 to 237 °C
19,COC(=O)c1cccc(C(=O)c2cn(CC(=O)N(C)CCc3ccccc3)c3ccc(OCc4ccccc4)cc23)c1,224 to 230 °C
20,O=C(NCCO)c1ccc(C(=O)NCCO)cc1,227 to 229 °C
21,COc1cc(C)c(C(O)c2c(Cl)cnc(Cl)c2C(F)(F)F)c(OC)c1OC (stereo unspecified),162 to 165 °C
22,Cc1nc(-n2ccc(O)cc2=O)sc1C(=O)NCc1cccnc1,238 to 240 °C
23,CC1CN(c2cccc(F)c2)N=C1N (stereo unspecified),78 to 80 °C
24,CCOC(=O)c1c(C(F)(F)F)nc(C(F)(F)F)c(C(=O)O)c1Cl,113 to 115 °C

row,SMILES,melting point
1,O=C1C=C(N2CCC3(CC2)CSC2=C(O3)c3ccccc3C(=O)C2=O)c2ccccc2C1=O,250 to 260 °C
2,O=C1NNC2=CC(=O)N(c3ccccc3)c3cc(Cl)ccc3N12,110 to 112 °C
3,Cc1oc(-c2ccccc2)nc1CCc1noc(CCl)n1,71 to 72 °C
4,N#Cc1ccc(C(F)(F)F)cc1N=NNc1cc(C(F)(F)F)ccc1C#N,183 to 184 °C
5,C=CCn1c(NCc2cccnc2)nc(N2CCc3ccccc3CC2)c(C#N)c1=O,> 200 °C
6,N#Cc1c(CNC(=O)c2ccc(-n3cccc3)cc2)nn(-c2ccc(Cl)cc2Cl)c1-c1ccc(Cl)cc1,121 °C
7,CN(CCNc1ccc([N+](=O)[O-])cc1)S(C)(=O)=O,109 °C
8,O=C(CC1CCCCC1)NC1CCCCC1,164 to 165 °C
9,O=C1c2ccccc2C(=O)N1CC(=O)N1c2ccccc2N(Cc2ccc3ccccc3c2)C(=O)C2CCCC21 (stereo unspecified),238 to 239 °C
10,Cc1ccc(S(=O)(=O)N2C[C@H]3C[C@@H]2CN3Cc2ccccc2)cc1,124 °C
11,CC(C)C(=O)OC1c2nccnc2C(=O)N1c1ccc2ccc(Cl)nc2n1 (stereo unspecified),260 to 262 °C
12,CC(C)c1cccc(C(C)C)c1NC(=O)C1c2ccccc2COc2ccc(CO)cc21 (stereo unspecified),157 to 158 °C
13,COc1cc(OC)c(N2CCCC2)cc1/C=C/C(=O)c1ccc(S(=O)(=O)NCCCN2CCN(C)CC2)cc1,64 to 68 °C
14,CCN(CC)CC1CCCN(CCNC(=O)N2c3ccccc3C(=O)Nc3cccnc32)C1 (stereo unspecified),184 to 185 °C
15,CCOc1cc(-c2nc(N)sc2CCC2CCCCC2)c(OC)cc1C,96 to 97 °C
16,CS(=O)c1cnc2c(c1)CCC(c1ccc(Cl)c(Cl)c1)O2 (stereo unspecified),159 to 162 °C
17,CC1CCCN(Cc2cccc(OCCCCNc3nnc(N)s3)c2)C1 (stereo unspecified),123 to 124 °C
18,Cn1c(CN2C(=O)C3(COc4cc5c(cc43)OCO5)c3ccccc32)nc2ccccc21 (stereo unspecified),> 250 °C
19,Cc1ccc(C(CC(=O)O)c2ccc(F)cc2)cc1 (stereo unspecified),137 to 139 °C
20,O=[N+]([O-])c1ccc(OCCCN2CCC(C(O)(c3ccc(F)cc3)c3ccc(F)cc3)CC2)cc1,93.5 to 94.5 °C
21,COC(=O)CCCc1cc2nc(Cl)ccc2n1S(=O)(=O)c1ccccc1,85 to 90 °C
22,CC(C)C[C@H](NC(=O)c1ccc(C(=N)N)cc1)C(=O)N1CCc2nn(CC(=O)O)cc2C1,165 to 169 °C
23,CS(=O)(=O)Nc1ccc(OCC2CCN(c3cc([N+](=O)[O-])ccn3)CC2)cc1,184 °C
24,Nc1sc2c(c1C(=O)c1ccsc1)CCC(Cc1ccccc1)C2 (stereo unspecified),57 to 58 °C
